Laboratory results: paper PMC9104286, “Characterization of a Cutibacterium acnes Camp Factor 1-Related Peptide as a New TLR-2 Modulator in In Vitro and Ex Vivo Models of Inflammation” (International Journal of Molecular Sciences, 2022)

What was measured:
S. aureus = test: Bacterial growth monitored at 620 nm; format: cell-based, Staphylococcus aureus; conditions: 24 h; B2 at 1 to 128 μM; antibiotics as positive control; growth at 620 nm
Description: (§1) As a positive control for growth inhibition, we cultured the bacteria in the presence of the antibiotic ampicillin, doxycycline and clindamycin.
(§2) Bacterial growth was monitored at 620 nm.
(§3) We used 24 strains of C. acnes in the study: strain 6919 (Type IA1) from the American Type Culture Collection (Manassas, VA) and strains isolated from various infections (13 bone and joint infections, 1 case of pleuritis, 1 case of appendicitis, 1 case of pericarditis, 1 case of pneumonia, 3 cutaneous infections, 1 case of bacteremia and 2 ascitic fluid infections). C. acnes strains RON (IA1), TRI (IA2), LIE (IA2), CHR (IA2), GUE (IB) and PIE (IB) were isolated from patients with joint infections. All these strains were kindly provided by Dr. Philippe Morand from the Bacteriology Department at Cochin Hospital, Paris, France. C. acnes strains were grown under anaerobic conditions in liquid or solidified reinforced clostridial medium (RCM; Difco Laboratories, Detroit, MI, USA), in a GasPak™ EZ Anaerobic Container System (Becton Dickinson & Co, Franklin Lakes, NJ, USA) at 37 °C. For routine culture, 100 mL of RCM was used and the bacteria were harvested after 5 days at 37 °C, by centrifugation at 7,000 x g for 10 min and 4 °C. The pellets were pooled and washed in about 30 mL cold sterile phosphate-buffered saline (PBS) (1.5 mM KH2PO4, 2.7 mM Na2HPO4.7H2O, 0.15 M NaCl (pH 7.4)), and were then centrifuged again, as described above. The final bacterial pellet was suspended in sterile PBS (1:10 based on the volume of the culture). Staphylococcus aureus (ATCC #25923) and Staphylococcus epidermidis (ATCC #12228) were grown in tryptic soy broth (TSB) and brain heart infusion (BHI) (Sigma-Aldrich, Saint-Louis, MO, USA) under aerobic conditions at 37 °C.

S. epidermidis = test: Bacterial growth monitored at 620 nm; format: cell-based, Staphylococcus epidermidis; conditions: 24 h; B2 at 1 to 128 μM; antibiotics as positive control; growth at 620 nm
Description: as §1, §2, §3

C. acnes 6919 = test: Bacterial growth monitored at 620 nm; format: cell-based, Cutibacterium acnes; conditions: C. acnes 6919, 5 days; B2 at 1 to 128 μM; antibiotics as positive control; growth at 620 nm
Description: as §1, §2, §3

human skin explants = test: Ex vivo human skin explants, induction of proinflammatory molecules by stimuli; format: cell-based; conditions: skin explants stimulated 18 h, LPS or PGN 5 µg/ml, Luminex, culture supernatant, mean ± SEM, n = 6

Row | Compound | effect on growth of S. aureus (in words) (S. aureus) | effect on growth of S. epidermidis (in words) (S. epidermidis) | effect on growth of C. acnes (in words) (C. acnes 6919) | GM-CSF levels (human skin explants) [pg/mL] | IL-1β levels (human skin explants) [pg/mL] | IL-10 production (human skin explants) [pg/mL] | TNF-α production (human skin explants) [pg/mL]
1 | C[C@H]1c2cccc(O)c2C(=O)C2=C(O)[C@]3(O)C(=O)C(C(N)=O)=C(O)[C@@H](N(C)C)[C@@H]3[C@@H](O)[C@@H]21 [doxycycline] | susceptible | susceptible | susceptible | – | – | – | –
2 | CCC[C@@H]1C[C@@H](C(=O)N[C@@H]([C@H]2O[C@H](SC)[C@H](O)[C@@H](O)[C@H]2O)[C@H](C)Cl)N(C)C1 [clindamycin] | susceptible | susceptible | susceptible | – | – | – | –
3 | lipopolysaccharide [LPS] | – | – | – | 765 ± 30 | 392 ± 5.6 | 10 ± 0.3 | 22 ± 1.7
4 | CC1(C)S[C@@H]2[C@H](NC(=O)[C@H](N)c3ccccc3)C(=O)N2[C@H]1C(=O)O [ampicillin] | susceptible | resistant | susceptible | – | – | – | –
5 | peptidoglycan [PGN] | – | – | – | 4733 ± 218 | 23 ± 0.8 | 35 ± 1.4 | 126 ± 9.3
